Measured values: patent publication US20220281848A1, “PYRAZOLE-SUBSTITUTED PYRROLIDINONES AS HERBICIDES” (FMC Corporation, priority 2019, published 2022)

Tested on: plants
Test: Test D pre-emergence, other plants of Tables D1 and D3
Assay type: in vivo
Conditions: preemergent, 20 DAA
Summary of the method: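 Damage was rated visually from 0 (none) to 100 (total), at 20 DAA for pre-emergence and 15 d for post-emergence. Plants grew from safener-treated seed in a glasshouse at 24/18° C. or 20/16° C. day/night, 65% humidity, watered twice daily.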

For `CN1CC(c2cc(C(F)(F)F)n(C)n2)C(C(=O)Nc2ccccc2F)C1=O` (racemic) [Compound 9], the “damage to plant (100=total damage to plant; 0=no damage to plant), ABUTH” value (rate 15) was 0, the “damage to plant (100=total damage to plant; 0=no damage to plant), ABUTH” value (rate 30) was 0 and the “damage to plant (100=total damage to plant; 0=no damage to plant), ABUTH” value (rate 60) was 0. The “damage to plant (100=total damage to plant; 0=no damage to plant), ABUTH” value (rate 130) was 0, the “damage to plant (100=total damage to plant; 0=no damage to plant), ABUTH” value (rate 250) was 10 and the “damage to plant (100=total damage to plant; 0=no damage to plant), ABUTH” value (rate 500) was 10. For the same compound, the “damage to plant (100=total damage to plant; 0=no damage to plant), AMARE” value (rate 15) was 0, the “damage to plant (100=total damage to plant; 0=no damage to plant), AMARE” value (rate 30) was 0 and the “damage to plant (100=total damage to plant; 0=no damage to plant), AMARE” value (rate 500) was 0. The “damage to plant (100=total damage to plant; 0=no damage to plant), BIDPI” value (rate 15) was 0, the “damage to plant (100=total damage to plant; 0=no damage to plant), BIDPI” value (rate 30) was 0 and the “damage to plant (100=total damage to plant; 0=no damage to plant), BIDPI” value (rate 60) was 0. The “damage to plant (100=total damage to plant; 0=no damage to plant), BIDPI” value (rate 130) was 0, the “damage to plant (100=total damage to plant; 0=no damage to plant), BIDPI” value (rate 250) was 0 and the “damage to plant (100=total damage to plant; 0=no damage to plant), BIDPI” value (rate 500) was 0. The “damage to plant (100=total damage to plant; 0=no damage to plant), BRAPL” value (rate 15) was 0, the “damage to plant (100=total damage to plant; 0=no damage to plant), BRAPL” value (rate 30) was 10 and the “damage to plant (100=total damage to plant; 0=no damage to plant), BRAPL” value (rate 60) was 30. For the same compound, the “damage to plant (100=total damage to plant; 0=no damage to plant), BRAPL” value (rate 130) was 90, the “damage to plant (100=total damage to plant; 0=no damage to plant), BRAPL” value (rate 250) was 100 and the “damage to plant (100=total damage to plant; 0=no damage to plant), BRAPL” value (rate 500) was 100. For the same compound, the “damage to plant (100=total damage to plant; 0=no damage to plant), CYPES” value (rate 15) was 0, the “damage to plant (100=total damage to plant; 0=no damage to plant), CYPES” value (rate 30) was 0 and the “damage to plant (100=total damage to plant; 0=no damage to plant), CYPES” value (rate 60) was 0. For the same compound, the “damage to plant (100=total damage to plant; 0=no damage to plant), CYPES” value (rate 130) was 0, the “damage to plant (100=total damage to plant; 0=no damage to plant), CYPES” value (rate 250) was 0 and the “damage to plant (100=total damage to plant; 0=no damage to plant), CYPES” value (rate 500) was 0. For the same compound, the “damage to plant (100=total damage to plant; 0=no damage to plant), DIGSA” value (rate 15) was 0, the “damage to plant (100=total damage to plant; 0=no damage to plant), DIGSA” value (rate 30) was 80 and the “damage to plant (100=total damage to plant; 0=no damage to plant), DIGSA” value (rate 60) was 80. For the same compound, the “damage to plant (100=total damage to plant; 0=no damage to plant), DIGSA” value (rate 130) was 100, the “damage to plant (100=total damage to plant; 0=no damage to plant), DIGSA” value (rate 250) was 90 and the “damage to plant (100=total damage to plant; 0=no damage to plant), DIGSA” value (rate 500) was 100. The “damage to plant (100=total damage to plant; 0=no damage to plant), ECHCG” value (rate 15) was 0, the “damage to plant (100=total damage to plant; 0=no damage to plant), ECHCG” value (rate 30) was 20 and the “damage to plant (100=total damage to plant; 0=no damage to plant), ECHCG” value (rate 60) was 80. The “damage to plant (100=total damage to plant; 0=no damage to plant), ECHCG” value (rate 130) was 90, the “damage to plant (100=total damage to plant; 0=no damage to plant), ECHCG” value (rate 250) was 90 and the “damage to plant (100=total damage to plant; 0=no damage to plant), ECHCG” value (rate 500) was 90. The “damage to plant (100=total damage to plant; 0=no damage to plant), ELEIN” value (rate 15) was 0, the “damage to plant (100=total damage to plant; 0=no damage to plant), ELEIN” value (rate 30) was 0 and the “damage to plant (100=total damage to plant; 0=no damage to plant), ELEIN” value (rate 60) was 0. For the same compound, the “damage to plant (100=total damage to plant; 0=no damage to plant), ELEIN” value (rate 130) was 0, the “damage to plant (100=total damage to plant; 0=no damage to plant), ELEIN” value (rate 250) was 0 and the “damage to plant (100=total damage to plant; 0=no damage to plant), ELEIN” value (rate 500) was 0. For the same compound, the “damage to plant (100=total damage to plant; 0=no damage to plant), EPHHL” value (rate 15) was 0, the “damage to plant (100=total damage to plant; 0=no damage to plant), EPHHL” value (rate 30) was 0 and the “damage to plant (100=total damage to plant; 0=no damage to plant), EPHHL” value (rate 60) was 0. For the same compound, the “damage to plant (100=total damage to plant; 0=no damage to plant), EPHHL” value (rate 130) was 0, the “damage to plant (100=total damage to plant; 0=no damage to plant), EPHHL” value (rate 500) was 10 and the “damage to plant (100=total damage to plant; 0=no damage to plant), GLXMA” value (rate 15) was 0. For the same compound, the “damage to plant (100=total damage to plant; 0=no damage to plant), GLXMA” value (rate 30) was 0, the “damage to plant (100=total damage to plant; 0=no damage to plant), GLXMA” value (rate 60) was 0 and the “damage to plant (100=total damage to plant; 0=no damage to plant), GLXMA” value (rate 130) was 0. For the same compound, the “damage to plant (100=total damage to plant; 0=no damage to plant), GLXMA” value (rate 250) was 0, the “damage to plant (100=total damage to plant; 0=no damage to plant), GLXMA” value (rate 500) was 0 and the “damage to plant (100=total damage to plant; 0=no damage to plant), IPOHE” value (rate 15) was 0. The “damage to plant (100=total damage to plant; 0=no damage to plant), IPOHE” value (rate 30) was 0, the “damage to plant (100=total damage to plant; 0=no damage to plant), IPOHE” value (rate 60) was 0 and the “damage to plant (100=total damage to plant; 0=no damage to plant), IPOHE” value (rate 130) was 0. For the same compound, the “damage to plant (100=total damage to plant; 0=no damage to plant), IPOHE” value (rate 250) was 0, the “damage to plant (100=total damage to plant; 0=no damage to plant), IPOHE” value (rate 500) was 0 and the “damage to plant (100=total damage to plant; 0=no damage to plant), ORYSA” value (rate 15) was 0. The “damage to plant (100=total damage to plant; 0=no damage to plant), ORYSA” value (rate 30) was 0, the “damage to plant (100=total damage to plant; 0=no damage to plant), ORYSA” value (rate 60) was 0 and the “damage to plant (100=total damage to plant; 0=no damage to plant), ORYSA” value (rate 130) was 0. For the same compound, the “damage to plant (100=total damage to plant; 0=no damage to plant), ORYSA” value (rate 250) was 0, the “damage to plant (100=total damage to plant; 0=no damage to plant), ORYSA” value (rate 500) was 0 and the “damage to plant (100=total damage to plant; 0=no damage to plant), PANMI” value (rate 15) was 0. For the same compound, the “damage to plant (100=total damage to plant; 0=no damage to plant), PANMI” value (rate 30) was 0, the “damage to plant (100=total damage to plant; 0=no damage to plant), PANMI” value (rate 60) was 0 and the “damage to plant (100=total damage to plant; 0=no damage to plant), PANMI” value (rate 130) was 0. For the same compound, the “damage to plant (100=total damage to plant; 0=no damage to plant), PANMI” value (rate 250) was 0, the “damage to plant (100=total damage to plant; 0=no damage to plant), PANMI” value (rate 500) was 0 and the “damage to plant (100=total damage to plant; 0=no damage to plant), SETFA” value (rate 15) was 0. For the same compound, the “damage to plant (100=total damage to plant; 0=no damage to plant), SETFA” value (rate 30) was 0, the “damage to plant (100=total damage to plant; 0=no damage to plant), SETFA” value (rate 60) was 0 and the “damage to plant (100=total damage to plant; 0=no damage to plant), SETFA” value (rate 130) was 50. The “damage to plant (100=total damage to plant; 0=no damage to plant), SETFA” value (rate 250) was 70, the “damage to plant (100=total damage to plant; 0=no damage to plant), SETFA” value (rate 500) was 90 and the “damage to plant (100=total damage to plant; 0=no damage to plant), SIDSP” value (rate 15) was 0. The “damage to plant (100=total damage to plant; 0=no damage to plant), SIDSP” value (rate 30) was 0, the “damage to plant (100=total damage to plant; 0=no damage to plant), SIDSP” value (rate 60) was 0 and the “damage to plant (100=total damage to plant; 0=no damage to plant), SIDSP” value (rate 130) was 0. The “damage to plant (100=total damage to plant; 0=no damage to plant), SIDSP” value (rate 250) was 0, the “damage to plant (100=total damage to plant; 0=no damage to plant), SIDSP” value (rate 500) was 0 and the “damage to plant (100=total damage to plant; 0=no damage to plant), SORVU” value (rate 15) was 0. For the same compound, the “damage to plant (100=total damage to plant; 0=no damage to plant), SORVU” value (rate 30) was 0, the “damage to plant (100=total damage to plant; 0=no damage to plant), SORVU” value (rate 60) was 0 and the “damage to plant (100=total damage to plant; 0=no damage to plant), SORVU” value (rate 130) was 0. The “damage to plant (100=total damage to plant; 0=no damage to plant), SORVU” value (rate 250) was 0.
